In US20180021320A1, “Method of Preventing or Treating Hearing Loss” (SUPPORT-VENTURE GMBH, priority 2015, published 2018):
Entries after “also recorded” stand apart in the source; their conditions may differ.

Columns and labels:
[1] = tested on: hair cells of mouse OC's in culture; test: Protection against gentamicin-induced hair cell loss in mouse organ of Corti explants; format: cell-based; conditions: 24 h; for loss of hair cells: 50 μM gentamicin alone
Experimental: (§1) OCs were harvested then placed in culture medium [Dulbecco's Modified Eagle Medium supplemented with 10% FCS, 25 mM HEPES and 30 U/ml penicillin (Invitrogen, Carlsbad, Calif., USA)] and incubated for 24 hours at 37° C. in an atmosphere of 95% O2/5% CO2. After that period, the culture medium was replaced with fresh medium containing no compound or 200 μM gentamycin alone or 200 μM gentamicin with either 2 or 10 μM pioglitazone, and incubated for a further 48 hours at 37° C. Ten OC explants were used for each treatment condition.
(§2) After incubation with compounds, the OCs were fixed in 4% paraformaldehyde, washed and then stained with a fluorescein (FITC)-conjugated phalloidin to detect inner and outer hair cells. After staining, the OCs were visualized and photographed using a fluorescence microscope (Olympus FSX100). Outer and inner hair cells were separately quantitated for the apical, basal, and middle turn of each organ of Corti. The values for each turn were averaged for the 10 OCs used for each condition. Significant differences between treatment groups in numbers OHC and IHC were determined using analysis of variance (ANOVA) followed by the least significant difference (LSD) post-hoc test (Stat View 5.0). Differences associated with P-values of less than 0.05 were considered to be statistically significant. All data are presented as mean±SD.
Methods were similar to those in Example 1. The main differences were that mouse OC's were used rather than rat OC's. Moreover, treatment was performed for 24 hrs with 50 μM gentamicin. The number of OC's used for each experimental condition was 3-5. The concentrations of test substances were 2 μM and 10 μM for tesaglitazar and muraglitazar, and 25 μM and 150 μM for fenofibric acid.

[2] = tested on: hair cells of organ of Corti (OC) explants; test: Protection against gentamicin-induced hair cell loss in rat organ of Corti explants; format: cell-based, Sprague-Dawley rats
Experimental: All animal procedures were carried out according to protocols approved by the Kantonales Veterinäramt, Basel, Switzerland. Postnatal day 5 (p5) Sprague-Dawley rats were used for the studies. Studies were performed in vitro, using organ of Corti (OC) explants from p5 animals. Animals were sacrificed and the cochleae carefully dissected to separate the organ of Corti from the spiral ganglion, stria vascularis and Reissner's membrane [Sobkowicz H M, Loftus J M, Slapnick S M. Acta Otolaryngol Suppl. 1993; 502:3-36].
as §1, §2

[3] = tested on: noise-induced hearing loss; test: Protection against noise-induced hearing loss, auditory brainstem response (ABR); format: in vivo, guinea pigs; conditions: for threshold shift (ABR), mean±SD: single 40 μl round window application day before noise
Text: The guinea pig model is the preferred animal species in hearing research. The agent application as well as the noise trauma was applied under general anesthesia. Upon arrival, animals underwent an acclimatization period of at least one week prior to experiments.
Guinea pigs were first anaesthetized and hearing evaluated by a standard ABR method then into treatment groups. Each animal received a single round window application of test substance to both ears. The following day, animals were exposed to 115 dB broad band noise for 2 hrs under anaesthesia. At one and two weeks following noise exposure, the animals underwent a second hearing evaluation.
Animals were dosed with a single 40 μl application of pioglitazone formulation or matching vehicle, onto the cochlear round window in both ears the day prior to noise exposure. For this approach, a hole was drilled in the rostral part of the skull to directly access the Bulla which allows drug application to the round window under visual control.
Animals were noise-exposed in a soundproof chamber (0.8×0.8×0.8 m, minimal attenuation 60 dB) for 2 h to broadband white noise (5-20 kHz) at 115 dB sound pressure level (SPL) under anaesthesia (60 mg/kg ketamine and 6 mg/kg xylazine). Noise was delivered binaurally by loudspeakers (HTC 11.19; Visaton, Haan, Germany) placed above the animal's head. The speakers were connected to an audio amplifier (Tangent AMP-50; Aulum, Denmark) and a DVD player.
At baseline before the noise exposure and on day 7 and 14 after noise, frequency-specific (2; 4; 8; 12; 16; 20; 24; 28; 32; 36; 40 kHz) auditory brainstem responses (ABR) were recorded in all treated animals and in controls. Auditory stimuli were delivered binaurally at different SPLs with a sinusoid generator (Model SSU2; Werk Fernmeldewesen, Berlin, Germany). Frequency output was controlled and adjusted with a digital counter (1941A Digital Counter; Fluke, Scarborough, Ontario, Canada). Sub-dermal needle electrodes were placed at the vertex (active), mastoid (reference), and in one foot (ground). ABR recordings were carried out with a Viking IV-measurement system (Viasys Healthcare, Conshohocken, Pa.). The brainstem responses were amplified (100,000×), filtered (bandpass 0.15-3 kHz), and averaged (300×) by the Viking IV-system. The amplitudes of the ABR waves were measured at different sound intensities by changing the attenuation of signal amplification. The amplitude-growth function was calculated for each tested frequency, and a linear regression was fitted to the linear portion of the data. The hearing threshold could be calculated for each frequency by extrapolating the linear amplitude-grow function of the regression line to zero. […]

[4] = concentration not stated, 50 μM gentamicin, medio-basal turns
[5] = 2 μM test substance with 50 μM gentamicin
[6] = 10 μM test substance with 50 μM gentamicin

With fenofibric acid the “protection from gentamicin-dependent hair cell loss” value ([1]; 25 μM test substance with 50 μM gentamicin) was “not effective”, the “protection from gentamicin-dependent hair cell loss” value ([1]; 150 μM test substance with 50 μM gentamicin) was “completely protective” and the “protection from gentamicin-dependent hair cell loss” value [1, 4] was “protected from gentamicin-dependent hair cell loss; also recorded: significantly prevent gentamicin-dependent hair cell loss”.

With `COc1ccc(OC(=O)N(CC(=O)O)Cc2ccc(OCCc3nc(-c4ccccc4)oc3C)cc2)cc1` [Muraglitazar] the “protection from gentamicin-dependent hair cell loss” value [1, 5] was “not effective”, the “protection from gentamicin-dependent hair cell loss” value [1, 6] was “partially protective” and the “protection from gentamicin-dependent hair cell loss” value [1, 4] was “protected from gentamicin-dependent hair cell loss; also recorded: significantly prevent gentamicin-dependent hair cell loss”.

For gentamicin, the “reduction of hair cell number” value ([2]; 200 μM gentamicin alone, 48 h in culture, each segment) was 50-70%, the “loss of hair cells” value [1] was “approximately 50%” and the “loss of hair cells” value ([1]; listed as Gentamicin) was 50%.

With Tesaglitazar the “protection from gentamicin-dependent hair cell loss” value [1, 5] was “able to antagonize the effects of gentamicin and to preserve hair cell number and morphology”, the “protection from gentamicin-dependent hair cell loss” value [1, 6] was “able to antagonize the effects of gentamicin and to preserve hair cell number and morphology” and the “protection from gentamicin-dependent hair cell loss” value [1, 4] was “protected from gentamicin-dependent hair cell loss; also recorded: significantly prevent gentamicin-dependent hair cell loss”.

`CCc1ccc(CCOc2ccc(CC3SC(=O)NC3=O)cc2)nc1` (stereo not drawn) [Pioglitazone, pioglitazone] was tested, and the “prevention of gentamicin-dependent hair cell loss (IHC and OHC; apical, basal, middle turns)” value ([2]; 2 μM pioglitazone with 200 μM gentamicin, 48 h) was “significantly prevent gentamicin-dependent hair cell loss in all turns”, the “prevention of gentamicin-dependent hair cell loss (IHC and OHC; apical, basal, middle turns)” value ([2]; 2 μM pioglitazone with 200 μM gentamicin, 48 h, listed as pioglitazone) was “completely prevent gentamicin-dependent hair cell loss in all turns” and the “prevention of gentamicin-dependent hair cell loss (IHC and OHC; apical, basal, middle turns)” value ([2]; 10 μM pioglitazone with 200 μM gentamicin, 48 h) was “significantly prevent gentamicin-dependent hair cell loss in all turns”. For the same molecule, the “prevention of gentamicin-dependent hair cell loss (IHC and OHC; apical, basal, middle turns)” value ([2]; 10 μM pioglitazone with 200 μM gentamicin, 48 h, listed as pioglitazone) was “completely prevent gentamicin-dependent hair cell loss in all turns”, the “prevention of gentamicin-dependent hair cell loss” value ([2]; pioglitazone co-treatment, concentration not stated, 48 h) was “almost completely preventing gentamicin-dependent hair cell loss” and the “reduction in the threshold shifts vs. vehicle controls” value ([3]; hearing recorded 7-14 days after noise trauma) was > 50%. The “threshold shift (ABR), mean±SD” value ([3]; one week after noise (115 dB, 2 h), 5-20 kHz) was 12.7±1.3 dB, the “protection from noise-induced hearing loss” value ([3]; one week after noise, vs. vehicle) was “approximately 60%” and the “threshold shift (ABR), mean±SD” value ([3]; two weeks after noise (115 dB, 2 h)) was 6.3±3.9 dB.
